Legend:
[1] = molecular target: FGFR1(h) (Homo sapiens, UniProt P11362); test: Kinase assay, FGFR1(h); assay type: biochemical
Protocol: Kinase assay protocols well known to those of ordinary skill in the art were used. Specifically, the buffer composition was as follows: 20 mM MOPS, 1 mM EDTA, 0.01% Brij-35, 5% Glycerol, 0.1% β-mercaptoethanol, 1 mg/mL BSA. Test compounds were initially dissolved in DMSO at the desired concentration, then serially diluted to the kinase assay buffer. In a final reaction volume of 25 μL FGFR1(h) (5-10 mU) and KDR(h) (5-10 mU) are incubated with 8 mM MOPS pH 7.0, 0.2 mM EDTA, 200 μM LRRASLG (Kemptide), 10 mM magnesium acetate and [γ^33P-ATP]. The reaction was initiated by the addition of the MgATP mix. After incubation for 40 minutes at room temperature, the reaction was stopped by addition of 5 μL of a 3% phosphoric acid solution. Ten L of the reaction was then spotted onto a P30 filter mat and washed three times for 5 minutes in 50 mM phosphoric acid and once in methanol prior to drying and scintillation counting. Wells containing substrate but no kinase and wells containing a phosphopeptide control were used to set 0% and 100% phosphorylation value, respectively.
Of all of the steps in developing a drug, the hardest is finding promising compounds. (See, e.g., Malo et al., “Statistical practice in high-throughput screening data analysis,” Nature Biotechnology, 2006, 24, 167-75.) Kinase inhibitors often also have an anti-proliferative effect. […] The kinase inhibitory activity Compound 19 was tested using the kinase assay described in Example 3. […] These mutations in the tested kinases are thought to play an important role in transformation of some cancers.

[2] = test system: KG1a; test: Inhibition of proliferation (CellTiterblue, 72 hr), KG1a; assay type: cell-based, human
Protocol: (§1) A number of studies were performed to analyze the consequences of tyrosine kinase inhibition in cell lines. To do this, 1000 cells are seeded in 27 μl/well in 384-well microplates, which are then placed in a humidified CO2 incubator at 37° C. overnight. The next day, 3 μl/well of 10× concentrated drug is added and the plates are returned to the incubator for 72 hr. After 72 hr incubation, plates are removed and 6 μl/well CellTiterblue (Promega) viability reagent is added. Plates are returned to the incubator for 3 hrs, after which fluorescence measurements are read on the Victor X3 plate reader (Perkin Elmer). Data are analyzed using Excel (Microsoft), and GI50 values are determined using Prism (Graphpad).

[3] = test system: SNU16; test: Inhibition of proliferation (CellTiterblue, 72 hr), SNU16; assay type: cell-based; conditions: Homo sapiens, SNU-16, 72 h
Protocol: as §1

[4] = test system: RT112; test: Inhibition of proliferation (CellTiterblue, 72 hr), RT112; assay type: cell-based; conditions: Homo sapiens, RT-112, 72 h
Protocol: as §1

[5] = molecular target: FGFR2(N549H)(h) (Homo sapiens, UniProt P21802, N549H); test: Kinase assay, FGFR2(N549H)(h); assay type: biochemical
Sequence of FGFR2(N549H)(h) (P21802 22-821 N549H): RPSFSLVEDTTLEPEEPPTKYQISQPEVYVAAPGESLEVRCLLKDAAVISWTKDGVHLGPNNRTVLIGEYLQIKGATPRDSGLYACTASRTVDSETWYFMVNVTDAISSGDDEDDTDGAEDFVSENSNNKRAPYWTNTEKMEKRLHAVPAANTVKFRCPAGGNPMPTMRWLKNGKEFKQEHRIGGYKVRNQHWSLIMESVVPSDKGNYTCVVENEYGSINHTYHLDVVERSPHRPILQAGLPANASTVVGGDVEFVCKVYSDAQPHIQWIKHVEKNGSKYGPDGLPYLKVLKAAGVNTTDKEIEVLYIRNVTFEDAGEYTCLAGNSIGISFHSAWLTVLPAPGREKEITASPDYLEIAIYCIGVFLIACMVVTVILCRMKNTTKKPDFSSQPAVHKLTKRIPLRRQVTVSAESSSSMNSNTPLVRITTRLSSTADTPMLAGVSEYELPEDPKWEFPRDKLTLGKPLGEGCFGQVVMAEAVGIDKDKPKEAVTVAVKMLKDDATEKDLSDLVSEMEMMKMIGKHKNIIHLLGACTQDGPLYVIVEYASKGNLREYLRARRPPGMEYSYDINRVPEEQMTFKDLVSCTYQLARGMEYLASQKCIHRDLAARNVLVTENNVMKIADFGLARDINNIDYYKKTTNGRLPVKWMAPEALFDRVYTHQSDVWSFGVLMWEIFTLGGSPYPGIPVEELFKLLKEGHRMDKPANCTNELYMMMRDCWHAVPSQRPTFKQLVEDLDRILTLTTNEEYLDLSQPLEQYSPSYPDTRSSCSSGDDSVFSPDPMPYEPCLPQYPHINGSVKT

[6] = molecular target: FGFR3(h) (Homo sapiens, UniProt P22607); test: Kinase assay, FGFR3(h); assay type: biochemical
[7] = molecular target: Flt4(h) (Homo sapiens, UniProt P35916); test: Kinase assay, Flt4(h); assay type: biochemical
Sequence of Flt4(h) (P35916 25-1363): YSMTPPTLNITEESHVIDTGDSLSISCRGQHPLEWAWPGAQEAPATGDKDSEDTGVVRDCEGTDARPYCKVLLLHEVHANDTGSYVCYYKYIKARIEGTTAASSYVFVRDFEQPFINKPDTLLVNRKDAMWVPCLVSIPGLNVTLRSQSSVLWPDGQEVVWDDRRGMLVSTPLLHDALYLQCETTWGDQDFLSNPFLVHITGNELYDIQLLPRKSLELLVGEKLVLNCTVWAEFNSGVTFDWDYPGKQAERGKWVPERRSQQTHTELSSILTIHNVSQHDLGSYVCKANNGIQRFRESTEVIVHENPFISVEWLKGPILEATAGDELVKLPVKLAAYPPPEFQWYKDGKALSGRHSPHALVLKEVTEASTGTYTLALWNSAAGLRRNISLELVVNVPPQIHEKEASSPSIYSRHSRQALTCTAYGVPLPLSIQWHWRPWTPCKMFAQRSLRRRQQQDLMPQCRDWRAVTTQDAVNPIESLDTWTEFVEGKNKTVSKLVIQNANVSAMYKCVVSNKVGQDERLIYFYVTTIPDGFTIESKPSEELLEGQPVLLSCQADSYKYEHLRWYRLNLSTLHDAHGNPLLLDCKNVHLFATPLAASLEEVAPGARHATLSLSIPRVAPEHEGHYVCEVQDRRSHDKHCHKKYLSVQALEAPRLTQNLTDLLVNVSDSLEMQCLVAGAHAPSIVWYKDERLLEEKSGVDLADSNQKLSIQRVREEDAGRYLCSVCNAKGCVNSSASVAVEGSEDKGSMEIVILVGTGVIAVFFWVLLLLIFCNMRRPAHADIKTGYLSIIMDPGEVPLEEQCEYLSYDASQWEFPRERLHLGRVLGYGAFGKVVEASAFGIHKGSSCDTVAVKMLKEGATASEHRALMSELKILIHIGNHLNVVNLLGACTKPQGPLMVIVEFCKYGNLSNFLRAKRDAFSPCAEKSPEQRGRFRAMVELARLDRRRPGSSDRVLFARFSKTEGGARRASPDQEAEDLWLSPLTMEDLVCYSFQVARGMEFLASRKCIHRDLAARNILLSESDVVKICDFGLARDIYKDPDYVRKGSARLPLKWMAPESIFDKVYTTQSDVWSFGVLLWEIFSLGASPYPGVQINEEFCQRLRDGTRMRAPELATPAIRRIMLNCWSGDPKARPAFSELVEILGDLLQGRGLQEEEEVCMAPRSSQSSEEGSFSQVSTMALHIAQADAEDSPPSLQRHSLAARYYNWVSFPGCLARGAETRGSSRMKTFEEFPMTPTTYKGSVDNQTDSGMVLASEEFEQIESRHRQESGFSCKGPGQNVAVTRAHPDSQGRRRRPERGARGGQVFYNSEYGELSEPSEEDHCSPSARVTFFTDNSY

[8] = molecular target: Lck(h) (Homo sapiens, UniProt P06239); test: Kinase assay, Lck(h); assay type: biochemical
Sequence of Lck(h) (P06239 whole entry): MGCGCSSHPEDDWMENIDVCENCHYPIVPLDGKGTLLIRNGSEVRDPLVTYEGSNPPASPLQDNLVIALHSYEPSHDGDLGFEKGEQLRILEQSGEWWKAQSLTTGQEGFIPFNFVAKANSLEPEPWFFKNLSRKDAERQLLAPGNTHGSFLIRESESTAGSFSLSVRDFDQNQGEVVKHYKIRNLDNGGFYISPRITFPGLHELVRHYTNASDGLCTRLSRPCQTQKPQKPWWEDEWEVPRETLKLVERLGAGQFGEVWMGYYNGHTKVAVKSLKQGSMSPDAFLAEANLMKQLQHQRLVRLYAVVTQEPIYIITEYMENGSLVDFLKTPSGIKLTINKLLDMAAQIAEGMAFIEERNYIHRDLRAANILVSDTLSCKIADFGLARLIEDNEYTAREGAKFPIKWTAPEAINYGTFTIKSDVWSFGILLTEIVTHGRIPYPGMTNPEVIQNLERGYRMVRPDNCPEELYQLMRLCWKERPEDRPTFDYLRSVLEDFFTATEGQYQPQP

[9] = molecular target: Axl(h) (Homo sapiens, UniProt P30530); test: Kinase assay, Axl(h); assay type: biochemical
[10] = molecular target: IGF-1R(h) (Homo sapiens, UniProt P08069); test: Kinase assay, IGF-1R(h); assay type: biochemical
[11] = molecular target: AJK2(h) (Homo sapiens, UniProt O60674); test: Kinase assay, AJK2(h); assay type: biochemical
[12] = molecular target: MEK1(h) (Homo sapiens, UniProt Q02750); test: Kinase assay, MEK1(h); assay type: biochemical
[13] = molecular target: Mer(h) (Homo sapiens, UniProt Q12866); test: Kinase assay, Mer(h); assay type: biochemical
[14] = molecular target: Met(h) (Homo sapiens, UniProt P08581); test: Kinase assay, Met(h); assay type: biochemical
[15] = test system: Parental BaF3 cells; test: BaF3 cell model, Parental; assay type: cell-based; conditions: Mus musculus, read-out: IC5o(nM) Parental
Excerpt: (§2) In FIG. 1 these kinases are from the fibroblast growth factor receptor class of kinases (FGFR1-FGFR4). Compound 19 kinase inhibitory activity FGFR1-FGFR4 are also depicted in Table 5.

[16] = molecular target: T1, FGFR1 (Homo sapiens, UniProt P11362); test: BaF3 cells engineered for expression of FGFR1; assay type: cell-based; conditions: read-out: IC5o(nM) FGFR1
T1 construct: expressed in transfected cells; host or cells: BaF3
T1 sequence (P11362 22-822, species assumed): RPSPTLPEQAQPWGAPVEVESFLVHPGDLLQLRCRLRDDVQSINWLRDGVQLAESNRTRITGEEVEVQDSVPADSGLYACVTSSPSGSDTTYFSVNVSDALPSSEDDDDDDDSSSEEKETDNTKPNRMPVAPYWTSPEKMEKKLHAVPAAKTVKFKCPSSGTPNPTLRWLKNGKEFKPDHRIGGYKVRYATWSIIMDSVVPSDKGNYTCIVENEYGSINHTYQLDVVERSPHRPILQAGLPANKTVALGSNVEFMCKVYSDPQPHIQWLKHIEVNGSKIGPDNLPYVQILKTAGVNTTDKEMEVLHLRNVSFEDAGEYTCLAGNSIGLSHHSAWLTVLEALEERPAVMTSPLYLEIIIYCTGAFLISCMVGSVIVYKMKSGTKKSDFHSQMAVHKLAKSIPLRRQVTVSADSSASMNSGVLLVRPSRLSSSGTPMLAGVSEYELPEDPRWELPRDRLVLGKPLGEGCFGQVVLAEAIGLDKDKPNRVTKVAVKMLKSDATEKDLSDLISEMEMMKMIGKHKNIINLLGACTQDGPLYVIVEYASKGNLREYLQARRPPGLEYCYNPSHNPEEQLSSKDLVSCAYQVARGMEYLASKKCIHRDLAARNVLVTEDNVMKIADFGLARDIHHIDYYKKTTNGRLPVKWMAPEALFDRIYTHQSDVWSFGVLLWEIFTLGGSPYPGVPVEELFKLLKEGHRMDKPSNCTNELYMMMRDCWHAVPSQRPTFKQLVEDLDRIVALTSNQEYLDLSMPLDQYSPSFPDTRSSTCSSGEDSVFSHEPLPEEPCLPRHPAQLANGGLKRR
Excerpt: as §2

[17] = molecular target: T2, FGFR4 (Homo sapiens, UniProt P22455); test: BaF3 cells engineered for expression of FGFR4; assay type: cell-based; conditions: read-out: IC5o(nM) FGFR4
T2 construct: expressed in transfected cells; host or cells: BaF3
Excerpt: as §2

[18] = Pharmacokinetic profile in rats; assay type: in vivo; conditions: Rat
Excerpt: Compound 19's pharmacokinetic profile is consistent with Compound 19 being used as a therapeutic agent.

[19] = Metabolic stability, mouse liver microsomes; assay type: in vitro ADME
[20] = Cellular toxicity, HepG2 cell line; assay type: cell-based; conditions: human, HepG2 cells
Excerpt: (§3) Table 9 discloses toxicity data for compound 19 from various toxicity tests well known to those of ordinary skill.

[21] = Cellular toxicity, primary human hepatocyte; assay type: cell-based; conditions: primary hepatocytes
Excerpt: as §3

[22] = molecular target: hERG (Homo sapiens, UniProt Q12809); test: Cardiovascular toxicity, hERG
Excerpt: as §3

[23] = molecular target: CYP450 1A2 (Homo sapiens, UniProt P05177); test: CYP450 inhibition, 1A2; assay type: in vitro ADME
Sequence of CYP450 1A2 (P05177 whole entry): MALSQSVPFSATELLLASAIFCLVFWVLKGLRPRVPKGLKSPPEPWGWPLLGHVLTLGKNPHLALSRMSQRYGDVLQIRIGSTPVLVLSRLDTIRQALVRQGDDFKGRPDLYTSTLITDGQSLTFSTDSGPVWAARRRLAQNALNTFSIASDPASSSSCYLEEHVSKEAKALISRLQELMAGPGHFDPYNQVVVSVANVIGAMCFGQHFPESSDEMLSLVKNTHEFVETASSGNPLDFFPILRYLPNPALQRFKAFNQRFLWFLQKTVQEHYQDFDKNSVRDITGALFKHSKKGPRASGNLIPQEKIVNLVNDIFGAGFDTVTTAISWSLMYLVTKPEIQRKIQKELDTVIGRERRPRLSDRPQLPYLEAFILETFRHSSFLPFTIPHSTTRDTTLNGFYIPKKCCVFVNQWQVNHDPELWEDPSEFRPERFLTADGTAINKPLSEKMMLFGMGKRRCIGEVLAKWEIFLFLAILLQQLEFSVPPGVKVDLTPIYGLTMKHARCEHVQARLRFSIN
Excerpt: as §3

[24] = molecular target: CYP450 2C8 (Homo sapiens, UniProt P10632); test: CYP450 inhibition, 2C8; assay type: in vitro ADME
Sequence of CYP450 2C8 (P10632 whole entry): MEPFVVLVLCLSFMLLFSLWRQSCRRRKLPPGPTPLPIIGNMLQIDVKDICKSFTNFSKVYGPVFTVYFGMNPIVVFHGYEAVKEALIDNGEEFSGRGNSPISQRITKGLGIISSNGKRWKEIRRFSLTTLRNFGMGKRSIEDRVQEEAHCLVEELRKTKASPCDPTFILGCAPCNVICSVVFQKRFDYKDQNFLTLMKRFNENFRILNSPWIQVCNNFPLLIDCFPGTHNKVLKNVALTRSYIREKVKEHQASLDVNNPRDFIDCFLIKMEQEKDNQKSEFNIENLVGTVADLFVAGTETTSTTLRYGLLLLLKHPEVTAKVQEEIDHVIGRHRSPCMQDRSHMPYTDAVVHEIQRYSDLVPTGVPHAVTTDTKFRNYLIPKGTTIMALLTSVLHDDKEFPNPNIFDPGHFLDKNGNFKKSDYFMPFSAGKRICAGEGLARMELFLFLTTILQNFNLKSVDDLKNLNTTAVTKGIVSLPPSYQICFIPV
Excerpt: as §3

[25] = molecular target: CYP450 2C9 (Homo sapiens, UniProt P11712); test: CYP450 inhibition, 2C9; assay type: in vitro ADME
Sequence of CYP450 2C9 (P11712 whole entry): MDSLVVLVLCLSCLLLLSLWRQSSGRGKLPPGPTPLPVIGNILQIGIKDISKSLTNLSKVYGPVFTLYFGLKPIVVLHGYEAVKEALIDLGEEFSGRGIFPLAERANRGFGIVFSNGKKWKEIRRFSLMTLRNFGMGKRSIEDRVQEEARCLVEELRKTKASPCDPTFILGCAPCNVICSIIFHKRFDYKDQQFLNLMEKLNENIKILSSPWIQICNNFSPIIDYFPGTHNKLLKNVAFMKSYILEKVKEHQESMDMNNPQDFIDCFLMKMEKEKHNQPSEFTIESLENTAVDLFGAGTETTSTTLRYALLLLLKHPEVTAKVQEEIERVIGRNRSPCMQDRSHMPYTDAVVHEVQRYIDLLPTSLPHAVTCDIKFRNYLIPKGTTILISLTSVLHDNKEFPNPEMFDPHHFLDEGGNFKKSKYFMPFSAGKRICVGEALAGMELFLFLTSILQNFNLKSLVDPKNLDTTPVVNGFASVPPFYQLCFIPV
Excerpt: as §3

Sequence of FGFR1(h) (P11362 22-822): as the sequence (P11362 22-822, species assumed) above

SMILES: Cc1cc2c(F)c(Oc3ncnc(Nc4ccc(N5C[C@@H](C)N[C@@H](C)C5)cc4)c3C#N)cc(F)c2[nH]1 [Compound 19]
- IC50 [1]: 0.9 nM
- inhibition at 1 µM ([1]; 1 μM): 100%
- GI50 ([2]; Homo sapiens, KG-1a, 72 hr): 0.2 nM
- Anti-proliferation activity in KG1a (in words) ([2]; proliferation assay of Example 2): especially effective
- GI50 [3]: 12 nM
- GI50 [4]: 66 nM
- IC50 [5]: 7 nM
- IC50 [6]: 12 nM
- IC50 [7]: 116 nM
- IC50 [8]: > 1000 nM
- IC50 [9]: > 1000 nM
- IC50 [10]: > 1000 nM
- IC50 [11]: > 1000 nM
- IC50 [12]: > 1000 nM
- IC50 [13]: > 1000 nM
- IC50 [14]: > 1000 nM
- IC50 [15]: 1890 nM
- IC50 [16]: 11.4 nM
- IC50 [17]: 92.1 nM
- Oral Bioavailability (% F) ([18]; PO 5 mg/Kg): 76 % F
- clearance ([18]; in vivo, IV 1 mg/Kg): 17.6 mL/min/kg
- half-life ([18]; in vivo, IV 1 mg/Kg, read-out: Terminal Half Life (converted)): 6.81 h
- Vd ([18]; in vivo, IV 1 mg/Kg, read-out: Vz): 9.54 L/kg
- half-life [19]: > 1 h
- CC50 [20]: 1900 nM
- CC50 [21]: 20000 nM
- IC50 [22]: > 30000 nM
- IC50 [23]: 72000 nM
- IC50 [24]: 10600 nM
- IC50 [25]: 32900 nM
